27 compounds from patent publication US11033539B2, “Compounds of formulas (VII), (VIII), (IX), (XI), (XII), (XIII), and (XIV) as muscarinic receptor 4(M4) antagonists for treating neurological diseases” (Neurocrine Biosciences, Inc., priority 2015, dated 2021) can be followed below.

A word on the Ki: it is the dissociation constant of the complex between target and ligand, obtained from inhibition or displacement.

The target of this assay is human M4 receptor (Homo sapiens (Human), UniProt P08173). Description: Radioligand (tritiated N-methylscopolamine) binding assay, M4. The conditions noted are these: Ki against the M4 receptor; membranes from CHO cells expressing human M4; tritiated N-methylscopolamine 1.5 nM; read-out: Ki. In short, it runs like this: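 Ki from displacement of 1.5 nM [3H]N-methylscopolamine on membranes of CHO cells expressing each human receptor. Twelve compound concentrations (10 μM to […]), 90 min at 37° C in 50 mM HEPES, 100 mM NaCl, 5 mM MgCl2, 1 mM EDTA, pH 7.4. Bound ligand was captured by PEI-treated glass-fiber filtration and counted.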
Chain of human M4 receptor (P08173 whole entry): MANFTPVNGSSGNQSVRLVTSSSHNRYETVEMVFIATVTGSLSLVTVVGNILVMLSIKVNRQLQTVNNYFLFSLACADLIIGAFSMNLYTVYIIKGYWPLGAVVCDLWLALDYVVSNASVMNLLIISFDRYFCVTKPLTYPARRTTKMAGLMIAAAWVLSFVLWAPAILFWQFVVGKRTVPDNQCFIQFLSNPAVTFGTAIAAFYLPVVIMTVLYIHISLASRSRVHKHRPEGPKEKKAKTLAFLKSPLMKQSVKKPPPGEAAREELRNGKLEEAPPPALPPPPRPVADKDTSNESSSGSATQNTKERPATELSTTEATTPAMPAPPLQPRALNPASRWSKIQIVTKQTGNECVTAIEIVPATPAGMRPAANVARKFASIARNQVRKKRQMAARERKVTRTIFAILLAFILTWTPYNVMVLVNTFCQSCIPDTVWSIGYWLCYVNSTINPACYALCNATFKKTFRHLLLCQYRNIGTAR

As for `Cc1c(C(=O)NCCC2CCN(Cc3ccc(O)cc3)CC2)cnc2cc(-c3ccccc3)nn12` [19-8], the Ki fell in the range of 100 to 1000 nM.
Then `COc1nc(N2CCN(C(=O)NCCC3CCN(Cc4ccccc4)CC3)[C@H](C)C2)ncc1C#N` [4-26, (2R)-N-[2-(1-benzylpiperidin-4-yl)ethyl]-4-(5-cyano-4-methoxypyrimidin-2-yl)-2-methylpiperazine-1-carboxamide], with 10 to 100 nM; and `O=C(NCCC1CCN(Cc2ccccc2)CC1)C1(F)CCN(c2ccc(OC(F)(F)F)cc2)CC1` [10-55, N-[2-(1-benzylpiperidin-4-yl)ethyl]-4-fluoro-1-[4-(trifluoromethoxy)phenyl]piperidine-4-carboxamide], with 10 to 100 nM; and `C[C@@H]1CN(c2ccc(F)cc2F)CCN1C(=O)NCCC1CCN(Cc2ccccc2)CC1` [4-33, (2R)-N-[2-(1-benzylpiperidin-4-yl)ethyl]-4-(2,4-difluorophenyl)-2-methylpiperazine-1-carboxamide], with 10 to 100 nM.
For `COc1cccc(C2CCN(C(=O)NCCC3CCN(Cc4ccccc4)CC3)CC2)c1` [8-5, N-[2-(1-benzylpiperidin-4-yl)ethyl]-4-(3-methoxyphenyl)piperidine-1-carboxamide], the Ki was 100 to 1000 nM.
As for `N#Cc1cccc(N2CCC(NC(=O)NCCC3CCN(Cc4ccccc4)CC3)CC2)c1` [8-40, 3-[2-(1-benzylpiperidin-4-yl)ethyl]-1-[1-(3-cyanophenyl)piperidin-4-yl]urea], the inhibitory constant (Ki) lay within 100 to 1000 nM.
Then `C[C@@H]1CN(c2ncc(C(=O)O)cn2)CCN1C(=O)NCCC1CCN(Cc2ccccc2)CC1` [5-2, 2-[(3R)-4-{[2-(1-benzylpiperidin-4-yl)ethyl]carbamoyl}-3-methylpiperazin-1-yl]pyrimidine-5-carboxylic acid], with 100 to 1000 nM; and `O=C(NCCC1(CO)CCN(Cc2ccccc2)CC1)C1CCN(c2ccc(OC(F)(F)F)cc2)CC1` [9-13, N-{2-[1-benzyl-4-(hydroxymethyl)piperidin-4-yl]ethyl}-1-[4-(trifluoromethoxy)phenyl]piperidine-4-carboxamide], with 10 to 100 nM.
Then `O=C(NCCC1CCN(Cc2ccccc2)CC1)NC1CCN(c2ccc(F)cc2)CC1` [8-39, 1-[2-(1-benzylpiperidin-4-yl)ethyl]-3-[1-(4-fluorophenyl)piperidin-4-yl]urea], with 100 to 1000 nM.
Then `C[C@@H]1CN(c2cc(F)c(F)c(F)c2)CCN1C(=O)NCCC1CCN(Cc2ccccc2OC(F)(F)F)CC1` [6-21, (2R)-2-methyl-N-[2-(1-{[2-(trifluoromethoxy)phenyl]methyl}piperidin-4-yl)ethyl]-4-(3,4,5-trifluorophenyl)piperazine-1-carboxamide], with 100 to 1000 nM; and `N#Cc1ccc(N2CCC(C(=O)NCCC3CCN(Cc4ccccc4O)CC3)CC2)nc1` [11-26, 1-(5-cyanopyridin-2-yl)-N-(2-{1-[(2-hydroxyphenyl)methyl]piperidin-4-yl}ethyl)piperidine-4-carboxamide], with 100 to 1000 nM; and `COc1ccnc(N2CCN(C(=O)NCCC3CCN(Cc4ccccc4)CC3)[C@H](C)C2)n1` [4-2, (2R)-N-[2-(1-benzylpiperidin-4-yl)ethyl]-4-(4-methoxypyrimidin-2-yl)-2-methylpiperazine-1-carboxamide], with 100 to 1000 nM.
On to `O=C(NCCC1CCN(Cc2ccccc2)CC1)N1CCN(c2cccc(Cl)c2)CC1` [8-11, N-[2-(1-benzylpiperidin-4-yl)ethyl]-4-(3-chlorophenyl)piperazine-1-carboxamide], for which the Ki lay in the range of 10 to 100 nM.
In the case of `C[C@@H]1CN(c2ncc(C#N)cn2)C[C@H](C)N1C(=O)NCCC1CCN(Cc2ccc(C#N)cc2)CC1` [6-45, (2R,6S)-N-(2-{1-[(4-cyanophenyl)methyl]piperidin-4-yl}ethyl)-4-(5-cyanopyrimidin-2-yl)-2,6-dimethylpiperazine-1-carboxamide], the Ki fell in the range of 100 to 1000 nM.
For the compound `O=C(c1ccn2cc(-c3ccc(OC(F)(F)F)cc3)nc2c1)N(C1CC1)C1CCN(Cc2ccccc2)CC1` [9-48, N-(1-benzylpiperidin-4-yl)-N-cyclopropyl-2-[4-(trifluoromethoxy)phenyl]imidazo[1,2-a]pyridine-7-carboxamide], the inhibition constant Ki is 100 to 1000 nM.
Then `N#Cc1ccc(N2CCC(C(=O)NCCC3CCN(Cc4ccccc4O)CC3)CC2)nc1` [11-25, 1-(5-cyanopyridin-2-yl)-N-(2-{1-[(2-hydroxyphenyl)methyl]piperidin-4-yl}ethyl)piperidine-4-carboxamide], with 100 to 1000 nM; and `Cc1c(C(=O)NCCC2CCN(Cc3ccccc3)CC2)cnc2cc(-c3ccccc3C(F)(F)F)nn12` [18-11], with 10 to 100 nM.
For `C[C@@H]1CN(c2ccc(F)c(C#N)c2)CCN1C(=O)N(C)CCC1CCN(Cc2ccccc2)CC1` [3-4, (2R)-N-[2-(1-benzylpiperidin-4-yl)ethyl]-4-(3-cyano-4-fluorophenyl)-N,2-dimethylpiperazine-1-carboxamide] the value was 100 to 1000 nM; for `CN(C1CCN(C(=O)C2CCN(c3ccc(OC(F)(F)F)cc3)CC2)CC1)[C@@H]1CCN(Cc2ccccc2)C1` [9-33, N-[(3R)-1-benzylpyrrolidin-3-yl]-N-methyl-1-{1-[4-(trifluoromethoxy)phenyl]piperidine-4-carbonyl}piperidin-4-amine], 10 to 100 nM.
Then `O=C(NCCC1CCN(Cc2ccccc2)CC1)N1CCN(c2ccccc2F)CC1` [8-34, N-[2-(1-benzylpiperidin-4-yl)ethyl]-4-(2-fluorophenyl)piperazine-1-carboxamide], with 100 to 1000 nM.
For the compound `O=C(NCCC1CCN(Cc2ccccc2O)CC1)c1ccc(OCc2ccccc2)cc1` [11-3, 4-(benzyloxy)-N-(2-{1-[(2-hydroxyphenyl)methyl]piperidin-4-yl}ethyl)benzamide], the Ki was in the range of 10 to 100 nM.
In the case of `COc1ccc(-c2cc(C(F)(F)F)n3nc(C(=O)NCCC4CCN(Cc5ccccc5)CC4)cc3n2)cc1` [9-59, N-[2-(1-benzylpiperidin-4-yl)ethyl]-5-(4-methoxyphenyl)-7-(trifluoromethyl)pyrazolo[1,5-a]pyrimidine-2-carboxamide], the Ki lay in the range of 100 to 1000 nM.
Then `O=C(NCCC1CCN(Cc2csnn2)CC1)C1CCN(c2ccc(OC(F)(F)F)cc2)CC1` [11-11, N-{2-[1-(1,2,3-thiadiazol-4-ylmethyl)piperidin-4-yl]ethyl}-1-[4-(trifluoromethoxy)phenyl]piperidine-4-carboxamide], with 100 to 1000 nM.
Then `N#Cc1cccc(N2CCC(C(=O)NCCC3CCN(Cc4ccccc4)CC3)CC2)c1` [10-77, N-[2-(1-benzylpiperidin-4-yl)ethyl]-1-(3-cyanophenyl)piperidine-4-carboxamide], with 10 to 100 nM.
As to `O=C(NCCC1CCN(Cc2ccccc2)CC1)[C@H]1CCN(c2cccc(OC(F)(F)F)c2)C1` [10-52, (3S)-N-[2-(1-benzylpiperidin-4-yl)ethyl]-1-[3-(trifluoromethoxy)phenyl]pyrrolidine-3-carboxamide], the Ki fell in the range of 100 to 1000 nM.
Regarding `C[C@@H]1CN(c2ncc(Br)c(Cl)n2)CCN1C(=O)NCCC1CCN(Cc2ccccc2)CC1` [5-10, (2R)-N-[2-(1-benzylpiperidin-4-yl)ethyl]-4-(5-bromo-4-chloropyrimidin-2-yl)-2-methylpiperazine-1-carboxamide], the Ki lay within 100 to 1000 nM.
Take `CCN(C)C(=O)c1cc(C)nc(N2CCN(C(=O)NCCC3CCN(Cc4ccccc4)CC3)[C@H](C)C2)n1` [27-18]: the Ki fell in the range of 100 to 1000 nM.
